# From patent US20230048576A1, “COMPOUNDS FOR THE TREATMENT OF NEUROPATHIC PAIN” (City of Hope, priority 2019, published 2023)
# How the values were obtained:
# [1] = Survival of animals during the study; format: in vivo, rat
# Protocol: Neuropathic pain was induced by intraperitoneal administration of Taxol at a dose level of 6 mg/kg on study days 0-6 and 12 mg/kg on study days 7-12. Following injection of Taxol animals experienced pain as was assessed using the von Frey test. The development of neuropathic pain was confirmed by measuring mechanical allodynia (Von Frey test) on study day 13 (for inclusion) and on study day 14 (1 hour and 2 hour post dosing) and 24 hour post first dosing.
# [2] = Pharmacokinetic study following a single oral administration; format: in vivo, Sprague-Dawley (SD) rats; conditions: in 20% HPβCD in pH 8.0 buffer; 50 mg/kg oral gavage; vs salt in water, 4% DMSO in corn oil, Ora-Blend SF
# Protocol: Pharmacokinetic studies of four different formulations of LR-90 were investigated. LR-90 either in salt formulation dissolved in water, in 4% DMSO in corn oil, in 20% HPβCD in pH 8.0 buffer, and in Ora-Blend SF was delivered at a dose of 50 mg/kg by oral gavage in Sprague-Dawley (SD) rats. Blood samples were collected at 0 min, 15 min, 30 min, 1 hr, 2 hr, 4 hr, 8 hr, 24 hr and 48 hr post-dosing. LR-90 level was determined in plasma by LC-MS/MS assay.
smiles,measurement,setting,value
"CC(C)(Oc1ccc(NC(=O)Nc2ccc(Cc3ccc(NC(=O)Nc4ccc(OC(C)(C)C(=O)O)cc4)c(Cl)c3)cc2Cl)cc1)C(=O)O [LR-90, methylene bis[4,4′-(2-chlorophenylureidophenoxyisobutyric acid)]]",Survived Animals in %,"[1]; 25 mg/kg PO, Group 6, Study Day 13",100%
same,Survived Animals in %,"[1]; 25 mg/kg PO, Group 6, Study Day 14",100%
same,Survived Animals in %,"[1]; 25 mg/kg PO, Group 6, Study Day 15",100%
same,Survived Animals in %,"[1]; 25 mg/kg PO, Group 6, Study Day 16",100%
same,Survived Animals in %,"[1]; 25 mg/kg PO, Group 6, Study Day 17",100%
same,Survived Animals in %,"[1]; 25 mg/kg PO, Group 6, Study Day 18",100%
same,Survived Animals in %,"[1]; 25 mg/kg PO, Group 6, Study Day 19",100%
same,Survived Animals in %,"[1]; 25 mg/kg PO, Group 6, Study Day 20",100%
same,Survived Animals in %,"[1]; 25 mg/kg PO, Group 6, Study Day 21",100%
same,Survived Animals in %,"[1]; 25 mg/kg PO, Group 6, Study Day 22",100%
same,Survived Animals in %,"[1]; 25 mg/kg PO, Group 6, Study Day 23",100%
same,Survived Animals in %,"[1]; 25 mg/kg PO, Group 6, Study Day 24",100%
same,Survived Animals in %,"[1]; 25 mg/kg PO, Group 6, Study Day 25",75%
same,Survived Animals in %,"[1]; 25 mg/kg PO, Group 6, Study Day 28",38%
same,Survived Animals in %,"[1]; 50 mg/kg PO, Group 5, Study Day 13",100%
same,Survived Animals in %,"[1]; 50 mg/kg PO, Group 5, Study Day 14",100%
same,Survived Animals in %,"[1]; 50 mg/kg PO, Group 5, Study Day 15",100%
same,Survived Animals in %,"[1]; 50 mg/kg PO, Group 5, Study Day 16",100%
same,Survived Animals in %,"[1]; 50 mg/kg PO, Group 5, Study Day 17",100%
same,Survived Animals in %,"[1]; 50 mg/kg PO, Group 5, Study Day 18",100%
same,Survived Animals in %,"[1]; 50 mg/kg PO, Group 5, Study Day 19",100%
same,Survived Animals in %,"[1]; 50 mg/kg PO, Group 5, Study Day 20",100%
same,Survived Animals in %,"[1]; 50 mg/kg PO, Group 5, Study Day 21",100%
same,Survived Animals in %,"[1]; 50 mg/kg PO, Group 5, Study Day 22",88%
same,Survived Animals in %,"[1]; 50 mg/kg PO, Group 5, Study Day 23",88%
same,Survived Animals in %,"[1]; 50 mg/kg PO, Group 5, Study Day 24",50%
same,Survived Animals in %,"[1]; 50 mg/kg PO, Group 5, Study Day 25",50%
same,Survived Animals in %,"[1]; 50 mg/kg PO, Group 5, Study Day 28",38%
same,Survived Animals in %,"[1]; 100 mg/kg PO, Group 4, Study Day 13",100%
same,Survived Animals in %,"[1]; 100 mg/kg PO, Group 4, Study Day 14",100%
same,Survived Animals in %,"[1]; 100 mg/kg PO, Group 4, Study Day 15",100%
same,Survived Animals in %,"[1]; 100 mg/kg PO, Group 4, Study Day 16",100%
same,Survived Animals in %,"[1]; 100 mg/kg PO, Group 4, Study Day 17",100%
same,Survived Animals in %,"[1]; 100 mg/kg PO, Group 4, Study Day 18",100%
same,Survived Animals in %,"[1]; 100 mg/kg PO, Group 4, Study Day 19",100%
same,Survived Animals in %,"[1]; 100 mg/kg PO, Group 4, Study Day 20",100%
same,Survived Animals in %,"[1]; 100 mg/kg PO, Group 4, Study Day 21",100%
same,Survived Animals in %,"[1]; 100 mg/kg PO, Group 4, Study Day 22",100%
same,Survived Animals in %,"[1]; 100 mg/kg PO, Group 4, Study Day 23",88%
same,Survived Animals in %,"[1]; 100 mg/kg PO, Group 4, Study Day 24",63%
same,Survived Animals in %,"[1]; 100 mg/kg PO, Group 4, Study Day 25",38%
same,Survived Animals in %,"[1]; 100 mg/kg PO, Group 4, Study Day 28",38%
same,pharmacokinetics (plasma LR-90 level) compared with the three other formulations,[2],superior
